Values belong to the molecule of their own block, whether it stands above or below them.
Tests used:
[1] = test system: P-P70S6K (T389); experiment: Cell based AlphaLISA assay, inhibition of P-P70S6K (T389) in MDA-MB-468 cells; details: Homo sapiens, 4 h, 0.017-1,000 nM, two to four hours at 37° C., AlphaLisa SureFire Ultra, read-out: pIC50 for Inhibition of mTORC1 and mTORC2 Substrate Phosphorylation, p-P70S6K-(T389) (converted)
Experimental: (§1) Cell Based AlphaLISA Assays For Determining IC50 For Inhibition of P-Akt (S473), P-4E-BP1 (T37/46), and P-P70S6K (T389) in MDA-MB-468 Cells
(§2) mTOR Kinase Cellular Assay
(§3) To measure functional activity of mTORC1 and mTORC2 in cells the phosphorylation of 4EBP1 (Thr37/46) and P70S6K (Thr389), and AKT1/2/3 (Ser473) was monitored using AlphaLisa SureFire Ultra Kits (Perkin Elmer). […] Incubations are terminated by removal of the assay buffer and addition of lysis buffer provided with the assay kit. Samples are processed according to the manufacturer's instructions. The Alpha signal from the respective phosphoproteins is measured in duplicate using a microplate reader (Envision, Perkin-Elmer or Spectramax M5, Molecular Devices). Inhibitor concentration response curves are analyzed using normalized IC50 regression curve fitting with control based normalization.

[2] = test system: P-4E-BP1 (T37/46); experiment: Cell based AlphaLISA assay, inhibition of P-4E-BP1 (T37/46) in MDA-MB-468 cells; details: Homo sapiens, 4 h, 0.017-1,000 nM, two to four hours at 37° C., AlphaLisa SureFire Ultra, read-out: pIC50 for Inhibition of mTORC1 and mTORC2 Substrate Phosphorylation, p-4E-BP1-(T37/46) (converted)
Experimental: as §1, §2, §3

[3] = test system: P-Akt (S473); experiment: Cell based AlphaLISA assay, inhibition of P-Akt (S473) in MDA-MB-468 cells; details: Homo sapiens, 4 h, 0.017-1,000 nM, two to four hours at 37° C., AlphaLisa SureFire Ultra, read-out: pIC50 for Inhibition of mTORC1 and mTORC2 Substrate Phosphorylation, p-AKT1/2/3-(S473) (converted)
Experimental: as §1, §2, §3

SMILES: CO[C@H]1C[C@@H]2CC[C@@H](C)[C@@](O)(O2)C(=O)C(=O)N2CCCC[C@H]2C(=O)O[C@H]([C@H](C)C[C@@H]2CC[C@@H](O)[C@H](OC)C2)C[C@@H](O)[C@H](C)/C=C(\C)[C@@H](O)[C@@H](OC)C(=NOCC(=O)N2CCc3nc(N4CCN(c5ncc(C(=O)NCCOCCOCCOCCC(=O)N6CCc7cc(Cn8nc(-c9cnc%10[nH]ccc%10c9)c9c(N)ncnc98)ccc7C6)cn5)CC4)ncc3C2)[C@H](C)C[C@H](C)/C=C/C=C/C=C/1C [Example 19]
IC50 [1]: 0.001 to 0.01 µM
IC50 [2]: 0.00316 to 0.0316 µM
IC50 [3]: > 1 µM

SMILES: CO[C@H]1C[C@@H]2CC[C@@H](C)[C@@](O)(O2)C(=O)C(=O)N2CCCC[C@H]2C(=O)O[C@H]([C@H](C)C[C@@H]2CC[C@@H](O)[C@H](OC)C2)C[C@@H](O)[C@H](C)/C=C(\C)[C@@H](O)[C@@H](OC)C(=NOCC(=O)NCc2cnc(N3CCN(c4ncc(C(=O)NCCOCCOCCOCCC(=O)NCCCCn5nc(-c6ccc7oc(N)nc7c6)c6c(N)ncnc65)cn4)CC3)nc2)[C@H](C)C[C@H](C)/C=C/C=C/C=C/1C [Example 20]
IC50 [1]: 0.001 to 0.01 µM
IC50 [2]: 0.00316 to 0.0316 µM
IC50 [3]: > 1 µM

SMILES: CO[C@H]1C[C@@H]2CC[C@@H](C)[C@@](O)(O2)C(=O)C(=O)N2CCCC[C@H]2C(=O)O[C@H]([C@H](C)C[C@@H]2CC[C@@H](O)[C@H](OC)C2)C[C@@H](O)[C@H](C)/C=C(\C)[C@@H](O)[C@@H](OC)C(=NOCC(=O)NCc2cnc(N3CCN(c4ncc(C(=O)NCCOCCOCCOCCC(=O)N5CCc6cc(Cn7nc(-c8cnc9[nH]ccc9c8)c8c(N)ncnc87)ccc6C5)cn4)CC3)nc2)[C@H](C)C[C@H](C)/C=C/C=C/C=C/1C [Example 21]
IC50 [1]: 0.001 to 0.01 µM
IC50 [2]: 0.00316 to 0.0316 µM
IC50 [3]: > 1 µM

SMILES: CO[C@H]1C[C@@H]2CC[C@@H](C)[C@@](O)(O2)C(=O)C(=O)N2CCCC[C@H]2C(=O)O[C@H]([C@H](C)C[C@@H]2CC[C@@H](O)[C@H](OC)C2)C[C@@H](O)[C@H](C)/C=C(\C)[C@@H](O)[C@@H](OC)C(=NOCC(=O)NCc2cnc(N3CCN(C(=O)CN(C)CC(=O)NCCOCCOCCC(=O)NCCCCn4nc(-c5cnc6[nH]ccc6c5)c5c(N)ncnc54)CC3)nc2)[C@H](C)C[C@H](C)/C=C/C=C/C=C/1C [Example 22]
IC50 [1]: 0.001 to 0.01 µM
IC50 [2]: 0.0316 to 1 µM
IC50 [3]: > 1 µM

SMILES: CO[C@H]1C[C@@H]2CC[C@@H](C)[C@@](O)(O2)C(=O)C(=O)N2CCCC[C@H]2C(=O)O[C@H]([C@H](C)C[C@@H]2CC[C@@H](O)[C@H](OC)C2)C[C@@H](O)[C@H](C)/C=C(\C)[C@@H](O)[C@@H](OC)C(=NOCC(=O)N2CCc3nc(N4CCN(C(=O)CCOCCOCCOCCOCCC(=O)NCCCCn5nc(-c6ccc7oc(N)nc7c6)c6c(N)ncnc65)CC4)ncc3C2)[C@H](C)C[C@H](C)/C=C/C=C/C=C/1C [Example 23]
IC50 [1]: 0.001 to 0.01 µM
IC50 [2]: 0.00316 to 0.0316 µM
IC50 [3]: 0.0316 to 1 µM

SMILES: CO[C@H]1C[C@@H]2CC[C@@H](C)[C@@](O)(O2)C(=O)C(=O)N2CCCC[C@H]2C(=O)O[C@H]([C@H](C)C[C@@H]2CC[C@@H](O)[C@H](OC)C2)C[C@@H](O)[C@H](C)/C=C(\C)[C@@H](O)[C@@H](OC)C(=NOCC(=O)NCc2cnc(N3CCN(C(=O)CN(C)CC(=O)NCCOCCOCCC(=O)NCCCCn4nc(-c5ccc6oc(N)nc6c5)c5c(N)ncnc54)CC3)nc2)[C@H](C)C[C@H](C)/C=C/C=C/C=C/1C [Example 24]
IC50 [1]: 0.001 to 0.01 µM
IC50 [2]: 0.0316 to 1 µM
IC50 [3]: 0.0316 to 1 µM

SMILES: CO[C@H]1C[C@@H]2CC[C@@H](C)[C@@](O)(O2)C(=O)C(=O)N2CCCC[C@H]2C(=O)O[C@H]([C@H](C)C[C@@H]2CC[C@@H](O)[C@H](OC)C2)C[C@@H](O)[C@H](C)/C=C(\C)[C@@H](O)[C@@H](OC)C(=NOCC(=O)NCc2cnc(N3CCN(C(=O)CN(C)CC(=O)NCCOCCOCCC(=O)N4CCc5cc(Cn6nc(-c7ccc8oc(N)nc8c7)c7c(N)ncnc76)ccc5C4)CC3)nc2)[C@H](C)C[C@H](C)/C=C/C=C/C=C/1C [Example 25]
IC50 [1]: 0.001 to 0.01 µM
IC50 [2]: 0.0316 to 1 µM
IC50 [3]: > 1 µM

SMILES: CO[C@H]1C[C@@H]2CC[C@@H](C)[C@@](O)(O2)C(=O)C(=O)N2CCCC[C@H]2C(=O)O[C@H]([C@H](C)C[C@@H]2CC[C@@H](O)[C@H](OC)C2)C[C@@H](O)[C@H](C)/C=C(\C)[C@@H](O)[C@@H](OC)C(=NOCC(=O)NCCOCCC(=O)N2CCc3nc(N4CCN(c5ncc(C(=O)N6CCc7cc(Cn8nc(-c9ccc%10oc(N)nc%10c9)c9c(N)ncnc98)ccc7C6)cn5)CC4)ncc3C2)[C@H](C)C[C@H](C)/C=C/C=C/C=C/1C [Example 26]
IC50 [1]: 0.001 to 0.01 µM
IC50 [2]: 0.00316 to 0.0316 µM
IC50 [3]: > 1 µM

SMILES: CO[C@H]1C[C@@H]2CC[C@@H](C)[C@@](O)(O2)C(=O)C(=O)N2CCCC[C@H]2C(=O)O[C@H]([C@H](C)C[C@@H]2CC[C@@H](O)[C@H](OC)C2)C[C@@H](O)[C@H](C)/C=C(\C)[C@@H](O)[C@@H](OC)C(=NOCC(=O)NCCOCCOCCOCCOCCC(=O)N2CCN(c3ncc(C(=O)NCCCCn4nc(-c5ccc6oc(N)nc6c5)c5c(N)ncnc54)cn3)CC2)[C@H](C)C[C@H](C)/C=C/C=C/C=C/1C [Example 27]
IC50 [1]: 0.001 to 0.01 µM
IC50 [2]: 0.00316 to 0.0316 µM
IC50 [3]: 0.0316 to 1 µM

SMILES: CO[C@H]1C[C@@H]2CC[C@@H](C)[C@@](O)(O2)C(=O)C(=O)N2CCCC[C@H]2C(=O)O[C@H]([C@H](C)C[C@@H]2CC[C@@H](O)[C@H](OC)C2)C[C@@H](O)[C@H](C)/C=C(\C)[C@@H](O)[C@@H](OC)C(=NOCC(=O)NCCOCCOCCOCCOCCOCCOCCC(=O)N2CCC(N3CCC(C(=O)N4CCc5cc(Cn6nc(-c7ccc8oc(N)nc8c7)c7c(N)ncnc76)ccc5C4)CC3)CC2)[C@H](C)C[C@H](C)/C=C/C=C/C=C/1C [Example 28]
IC50 [1]: 0.001 to 0.01 µM
IC50 [2]: 0.00316 to 0.0316 µM
IC50 [3]: 0.0316 to 1 µM

SMILES: CO[C@H]1C[C@@H]2CC[C@@H](C)[C@@](O)(O2)C(=O)C(=O)N2CCCC[C@H]2C(=O)O[C@H]([C@H](C)C[C@@H]2CC[C@@H](O)[C@H](OC)C2)C[C@@H](O)[C@H](C)/C=C(\C)[C@@H](O)[C@@H](OC)C(=NOCC(=O)NCc2cnc(N3CCN(C(=O)CCOCCN4CCN(c5ncc(C(=O)NCCCCn6nc(-c7ccc8oc(N)nc8c7)c7c(N)ncnc76)cn5)CC4)CC3)nc2)[C@H](C)C[C@H](C)/C=C/C=C/C=C/1C [Example 29]
IC50 [1]: 0.001 to 0.01 µM
IC50 [2]: 0.00316 to 0.0316 µM
IC50 [3]: 0.0316 to 1 µM

SMILES: CO[C@H]1C[C@@H]2CC[C@@H](C)[C@@](O)(O2)C(=O)C(=O)N2CCCC[C@H]2C(=O)O[C@H]([C@H](C)C[C@@H]2CC[C@@H](O)[C@H](OC)C2)C[C@@H](O)[C@H](C)/C=C(\C)[C@@H](O)[C@@H](OC)C(=NOCC(=O)NCc2cnc(N3CCN(C(=O)CCOCCN4CCN(c5ncc(C(=O)N6CCc7cc(Cn8nc(-c9ccc%10oc(N)nc%10c9)c9c(N)ncnc98)ccc7C6)cn5)CC4)CC3)nc2)[C@H](C)C[C@H](C)/C=C/C=C/C=C/1C [Example 30]
IC50 [1]: < 0.001 µM
IC50 [2]: 0.00316 to 0.0316 µM
IC50 [3]: > 1 µM

SMILES: CO[C@H]1C[C@@H]2CC[C@@H](C)[C@@](O)(O2)C(=O)C(=O)N2CCCC[C@H]2C(=O)O[C@H]([C@H](C)C[C@@H]2CC[C@@H](O)[C@H](OC)C2)C[C@@H](O)[C@H](C)/C=C(\C)[C@@H](O)[C@@H](OC)C(=NOCC(=O)NCc2cnc(N3CCN(C(=O)CCOCCN4CCN(c5ncc(C(=O)N6CCc7cc(Cn8nc(-c9cnc%10[nH]ccc%10c9)c9c(N)ncnc98)ccc7C6)cn5)CC4)CC3)nc2)[C@H](C)C[C@H](C)/C=C/C=C/C=C/1C [Example 31]
IC50 [1]: < 0.001 µM
IC50 [2]: 0.00316 to 0.0316 µM
IC50 [3]: > 1 µM

SMILES: CO[C@H]1C[C@@H]2CC[C@@H](C)[C@@](O)(O2)C(=O)C(=O)N2CCCC[C@H]2C(=O)O[C@H]([C@H](C)C[C@@H]2CC[C@@H](O)[C@H](OC)C2)C[C@@H](O)[C@H](C)/C=C(\C)[C@@H](O)[C@@H](OC)C(=NOCC(=O)NCc2cnc(N3CCN(C(=O)CCOCCN4CCN(c5ncc(C(=O)N6CCC(n7nc(-c8ccc9oc(N)nc9c8)c8c(N)ncnc87)CC6)cn5)CC4)CC3)nc2)[C@H](C)C[C@H](C)/C=C/C=C/C=C/1C [Example 32]
IC50 [1]: < 0.001 µM
IC50 [2]: 0.00316 to 0.0316 µM
IC50 [3]: 0.00316 to 0.0316 µM

IC50 [1]: 0.01 to 1 µM
IC50 [2]: > 1 µM
IC50 [3]: > 1 µM
SMILES: COc1ccc(-c2ccc3ncc4c(c3c2)n(-c2ccc(N3CCN(c5ncc6c(n5)CCN(C(=O)c5cnc(N7CCN(CCOCCC(=O)N8CCN(c9ncc(CNC(=O)CON=C%10[C@H](C)C[C@H](C)/C=C/C=C/C=C(\C)[C@@H](OC)C[C@@H]%11CC[C@@H](C)[C@@](O)(O%11)C(=O)C(=O)N%11CCCC[C@H]%11C(=O)O[C@H]([C@H](C)C[C@@H]%11CC[C@@H](O)[C@H](OC)C%11)C[C@@H](O)[C@H](C)/C=C(\C)[C@@H](O)[C@H]%10OC)cn9)CC8)CC7)nc5)C6)CC3)c(C(F)(F)F)c2)c(=O)n4C)cn1 [Example 33]
